From patent US20090226393A1 (NITTO DENKO CORPORATION, priority 2008, published 2009) come the findings set out here.

The conditions of series [1]: female, nu/nu, mouse, in vivo, iv, 40 mg/kg.
A short description of series [2]: Biodistribution in different organs (drug accumulation study). The settings on record: 48 hours post administration.
Method: Plasma, tumor and samples of the major organ were collected at intervals out to 340 hours. […] Pharmacokinetic parameters were estimated using WinNonlin software using a non-compartment model.
For each drug, groups of 6 mice were anesthetized at various time points and 0.3 ml of blood, obtained by cardiac puncture, was collected into heparinized tubes. Thereafter, mice were sacrificed before recovering from anesthesia and the following tissues were harvested and frozen from each animal: each of the 4 tumors, lung, liver, spleen, both kidneys, skeletal muscle and heart. […] For each drug a total 72 mice were required (6 mice/time point, 12 time points).
For series [3] the following is noted: mouse, in vivo.
The test system of series [4] is NCI-H460 non-small cell lung cancer xenograft. Conditions: 550 mg/kg paclitaxel equivalent, IV, q7dx2, compared to Abraxane.
From the text: Dosage amounts may be adjusted based on the maximum tolerated dose (MTD) of the pharmaceutical composition.

Take `CC(=O)O[C@H]1C(=O)[C@@]2(C)[C@H]([C@H](OC(=O)c3ccccc3)[C@]3(O)C[C@H](OC(=O)[C@H](O)[C@@H](NC(=O)c4ccccc4)c4ccccc4)C(C)=C1C3(C)C)[C@]1(OC(C)=O)CO[C@@H]1C[C@@H]2O` [PTX, Paclitaxel]: the “T1/2 Terminal” value in series [1] was 51 h. For the same compound, in series [2], the “amount retained in kidney” value is “less than 2 μg/g”, the “amount retained in liver” value is “less than 2 μg/g”, the “amount retained in lung” value is recorded as “less than 2 μg/g” and the “amount retained in spleen” value was “less than 2 μg/g”. In addition, the “detected in the feces” value in series [3] was “approximately 72%”.
“poly-(gamma-L-glutamyl glutamine)-paclitaxel [PGGA70K-PTX35]”: in series [4], the “% TGD (tumor growth delay)” value came to 136%. Also, in the series with B16 melanoma, the “tumor volume compared to Abraxane” value is on record as “significantly reduced tumor volume”.
